According to ChEMBL document CHEMBL1137641, “Influence of inoculum size on the selection of resistant mutants of Escherichia coli in relation to mutant prevention concentrations of marbofloxacin” (2007):
Converted amounts (≈) assume the structure as drawn.

Columns and labels:
Type in all cases: functional
[1] = tested on: Escherichia coli; test: Bactericidal activity against marbofloxacin-susceptible Escherichia coli ATCC 25922 assessed as final bacterial count using inoculum size of 10^5 CFU/mL inside the mutant selection window for 100% of time
[2] = tested on: Escherichia coli; test: Bactericidal activity against marbofloxacin-resistant Escherichia coli ATCC 25922 assessed as final bacterial count using inoculum size of 10^5 CFU/mL inside the mutant selection window for 100% of time
[3] = tested on: Escherichia coli; test: Bactericidal activity against marbofloxacin-susceptible Escherichia coli ATCC 25922 assessed as final bacterial count using inoculum size of 10^9CFU/mL inside the mutant selection window for 0% of time
[4] = T>MIC in Escherichia coli ATCC 25922 at time with in mutant selection window of 100%
[5] = tested on: Escherichia coli; test: Antibacterial activity against Escherichia coli ATCC 25922 assessed as mutant prevention concentration after 24 hrs by agar dilution method
[6] = tested on: Escherichia coli; test: Bactericidal activity against marbofloxacin-susceptible Escherichia coli ATCC 25922 assessed as area between the control curve and time kill curve using inoculum size of 10^9 CFU/mL inside the mutant selection window for 25% of time
[7] = Effect on Escherichia coli ATCC 25922 assessed as time at which drug concentration above the mutant prevention concentration at time with in mutant selection window of 25%
[8] = tested on: Escherichia coli; test: Bactericidal activity against marbofloxacin-susceptible Escherichia coli ATCC 25922 assessed as area between the control curve and time kill curve using inoculum size of 10^5 CFU/mL inside the mutant selection window for 100% of time
[9] = Effect on Escherichia coli ATCC 25922 assessed as time at which drug concentration above the mutant prevention concentration at time with in mutant selection window of 100%
[10] = tested on: Escherichia coli; test: Bactericidal activity against marbofloxacin-susceptible Escherichia coli ATCC 25922 assessed as final bacterial count using inoculum size of 10^7 CFU/mL inside the mutant selection window for 100% of time
[11] = tested on: Escherichia coli; test: Bactericidal activity against marbofloxacin-resistant Escherichia coli ATCC 25922 assessed as area between the control curve and time kill curve using inoculum size of 10^5 CFU/mL inside the mutant selection window for 100% of time
[12] = tested on: Escherichia coli; test: Bactericidal activity against marbofloxacin-resistant Escherichia coli ATCC 25922 assessed as area between the control curve and time kill curve using inoculum size of 10^7 CFU/mL inside the mutant selection window for 100% of time
[13] = tested on: Escherichia coli; test: Bactericidal activity against marbofloxacin-susceptible Escherichia coli ATCC 25922 assessed as final bacterial count using inoculum size of 10^9CFU/mL inside the mutant selection window for 25% of time
[14] = T>MIC in Escherichia coli ATCC 25922 at time with in mutant selection window of 25%
[15] = tested on: Escherichia coli; test: Antibacterial activity against Escherichia coli ATCC 25922 by microdilution method
[16] = tested on: Escherichia coli; test: Bactericidal activity against marbofloxacin-susceptible Escherichia coli ATCC 25922 assessed as final bacterial count using inoculum size of 10^7 CFU/mL inside the mutant selection window for 25% of time
[17] = tested on: Escherichia coli; test: Bactericidal activity against marbofloxacin-susceptible Escherichia coli ATCC 25922 assessed as final bacterial count using inoculum size of 10^7 CFU/mL inside the mutant selection window for 0% of time
[18] = tested on: Escherichia coli; test: Bactericidal activity against marbofloxacin-susceptible Escherichia coli ATCC 25922 assessed as area between the control curve and time kill curve using inoculum size of 10^9 CFU/mL inside the mutant selection window for 0% of time
[19] = Effect on Escherichia coli ATCC 25922 assessed as time at which drug concentration above the mutant prevention concentration at time with in mutant selection window of 0%
[20] = tested on: Escherichia coli; test: Bactericidal activity against marbofloxacin-susceptible Escherichia coli ATCC 25922 assessed as area between the control curve and time kill curve using inoculum size of 10^7 CFU/mL inside the mutant selection window for 0% of time
[21] = tested on: Escherichia coli; test: Bactericidal activity against marbofloxacin-susceptible Escherichia coli ATCC 25922 assessed as final bacterial count using inoculum size of 10^5 CFU/mL inside the mutant selection window for 25% of time
[22] = tested on: Escherichia coli; test: Bactericidal activity against marbofloxacin-resistant Escherichia coli ATCC 25922 assessed as area between the control curve and time kill curve using inoculum size of 10^9 CFU/mL inside the mutant selection window for 100% of time
[23] = tested on: Escherichia coli; test: Bactericidal activity against marbofloxacin-susceptible Escherichia coli ATCC 25922 assessed as final bacterial count using inoculum size of 10^5 CFU/mL inside the mutant selection window for 0% of time
[24] = tested on: Escherichia coli; test: Bactericidal activity against marbofloxacin-susceptible Escherichia coli ATCC 25922 assessed as area between the control curve and time kill curve using inoculum size of 10^5 CFU/mL inside the mutant selection window for 25% of time
[25] = T>MIC in Escherichia coli ATCC 25922 at time with in mutant selection window of 0%
[26] = tested on: Escherichia coli; test: Bactericidal activity against marbofloxacin-resistant Escherichia coli ATCC 25922 assessed as final bacterial count using inoculum size of 10^9 CFU/mL inside the mutant selection window for 100% of time
[27] = tested on: Escherichia coli; test: Bactericidal activity against marbofloxacin-resistant Escherichia coli ATCC 25922 assessed as final bacterial count using inoculum size of 10^7 CFU/mL inside the mutant selection window for 100% of time
[28] = tested on: Escherichia coli; test: Bactericidal activity against marbofloxacin-susceptible Escherichia coli ATCC 25922 assessed as area between the control curve and time kill curve using inoculum size of 10^5 CFU/mL inside the mutant selection window for 0% of time
[29] = tested on: Escherichia coli; test: Bactericidal activity against marbofloxacin-susceptible Escherichia coli ATCC 25922 assessed as area between the control curve and time kill curve using inoculum size of 10^7 CFU/mL inside the mutant selection window for 100% of time
[30] = tested on: Escherichia coli; test: Bactericidal activity against marbofloxacin-susceptible Escherichia coli ATCC 25922 assessed as area between the control curve and time kill curve using inoculum size of 10^7 CFU/mL inside the mutant selection window for 25% of time

**Q.** Which results are given for CN1CCN(c2c(F)cc3c(=O)c(C(=O)O)cn4c3c2OCN4C)CC1 [MARBOFLOXACIN]?
**A.** CFU [1]: 2 ×10⁶ /ml; CFU [2]: 1 ×10⁸ /ml; CFU [3]: 1 ×10⁴ /ml; T>MIC [4]: 100%; Activity [5]: 0.256 µg/mL; ABBC [6]: 53 log10CFU/ml/hr; Activity [7]: 75%; ABBC [8]: 53 log10CFU/ml/hr; Activity [9]: 0%; CFU [10]: 7 ×10⁴ /ml; ABBC [11]: 51 log10CFU/ml/hr; ABBC [12]: 56 log10CFU/ml/hr; CFU [13]: 3 ×10⁴ /ml; T>MIC [14]: 100%; MIC [15]: 8 ng/mL (≈ 0.0221 µM); CFU [16]: 8 ×10⁴ /ml; CFU [17]: 2 ×10⁴ /ml; ABBC [18]: 51 log10CFU/ml/hr; Activity [19]: 100%; ABBC [20]: 57 log10CFU/ml/hr; CFU [21]: 6 ×10⁴ /ml; ABBC [22]: 44 log10CFU/ml/hr; CFU [23]: 7 ×10³ /ml; ABBC [24]: 54 log10CFU/ml/hr; T>MIC [25]: 100%; CFU [26]: 5 ×10⁷ /ml; CFU [27]: 6 ×10⁸ /ml; ABBC [28]: 54 log10CFU/ml/hr; ABBC [29]: 60 log10CFU/ml/hr; ABBC [30]: 56 log10CFU/ml/hr
